Tests used:
[1] = biological target: Serine/threonine-protein kinase 25 (Homo sapiens) (UniProt O00506); settings: Compound concentration 1000.0 nM
[2] = biological target: Mitogen-activated protein kinase kinase kinase kinase 3 (Homo sapiens) (UniProt Q8IVH8); settings: Compound concentration 1000.0 nM
[3] = biological target: Cyclin-dependent kinase 4 (Homo sapiens) (UniProt P11802); settings: Compound concentration 1000.0 nM
[4] = test system: Tyrosine-protein kinase ABL1 (Homo sapiens), P00519 [Q252H]; settings: Compound concentration 1000.0 nM
[5] = biological target: Cyclin-dependent kinase 7 (Homo sapiens) (UniProt P50613); settings: Compound concentration 1000.0 nM
[6] = biological target: Calcium/calmodulin-dependent protein kinase type IV (Homo sapiens) (UniProt Q16566); settings: Compound concentration 1000.0 nM
[7] = biological target: Mitogen-activated protein kinase 15 (Homo sapiens) (UniProt Q8TD08); settings: Compound concentration 1000.0 nM
[8] = biological target: Sodium-dependent noradrenaline transporter (Homo sapiens) (UniProt P23975); settings: Compound concentration 10.0 uM
[9] = biological target: Tyrosine-protein kinase ABL1 (Homo sapiens) (UniProt P00519); settings: Compound concentration 1000.0 nM
[10] = biological target: MAP kinase-activated protein kinase 2 (Homo sapiens) (UniProt P49137); settings: Compound concentration 1000.0 nM
[11] = biological target: Protein kinase C iota type (Homo sapiens) (UniProt P41743); settings: Compound concentration 1000.0 nM
[12] = biological target: Serine/threonine-protein kinase PLK3 (Homo sapiens) (UniProt Q9H4B4); settings: Compound concentration 1000.0 nM
[13] = biological target: Fibroblast growth factor receptor 4 (Homo sapiens) (UniProt P22455); settings: Compound concentration 1000.0 nM
[14] = biological target: Activin receptor type-1-like (Homo sapiens) (UniProt P37023); settings: Compound concentration 1000.0 nM
[15] = biological target: Death-associated protein kinase 2 (Homo sapiens) (UniProt Q9UIK4); settings: Compound concentration 1000.0 nM
[16] = biological target: Ribosomal protein S6 kinase alpha-1 (Homo sapiens) (UniProt Q15418); settings: Compound concentration 1000.0 nM
[17] = biological target: Ephrin type-A receptor 7 (Homo sapiens) (UniProt Q15375); settings: Compound concentration 1000.0 nM
[18] = biological target: Mitogen-activated protein kinase 4 (Homo sapiens) (UniProt P31152); settings: Compound concentration 1000.0 nM
[19] = test system: Tyrosine-protein kinase ABL1 (Homo sapiens), P00519 [F317I]; settings: Compound concentration 1000.0 nM
[20] = biological target: Ribosomal protein S6 kinase alpha-3 (Homo sapiens) (UniProt P51812); settings: Compound concentration 1000.0 nM
[21] = biological target: Interleukin-1 receptor-associated kinase 3 (Homo sapiens) (UniProt Q9Y616); settings: Compound concentration 1000.0 nM
[22] = biological target: Tyrosine-protein kinase TXK (Homo sapiens) (UniProt P42681); settings: Compound concentration 1000.0 nM
[23] = test system: Mast/stem cell growth factor receptor Kit (Homo sapiens), P10721 [A829P]; settings: Compound concentration 1000.0 nM
[24] = biological target: Cyclin-dependent kinase 8 (Homo sapiens) (UniProt P49336); settings: Compound concentration 1000.0 nM
[25] = test system: Receptor-type tyrosine-protein kinase FLT3 (Homo sapiens), P36888 [UNDEFINED MUTATION]; settings: Compound concentration 1000.0 nM
[26] = biological target: Protein-tyrosine kinase 2-beta (Homo sapiens) (UniProt Q14289); settings: Compound concentration 1000.0 nM
[27] = biological target: Serine/threonine-protein kinase PAK 5 (Homo sapiens) (UniProt Q9P286); settings: Compound concentration 1000.0 nM
[28] = biological target: Myosin light chain kinase family member 4 (Homo sapiens) (UniProt Q86YV6); settings: Compound concentration 1000.0 nM
[29] = biological target: Cyclin-dependent kinase 4 (Homo sapiens) (UniProt P11802); settings: Compound concentration 1000.0 nM; remark: listed apart in the source
[30] = biological target: Serine/threonine-protein kinase OSR1 (Homo sapiens) (UniProt O95747); settings: Compound concentration 1000.0 nM
[31] = biological target: Serine/threonine-protein kinase PAK 3 (Homo sapiens) (UniProt O75914); settings: Compound concentration 1000.0 nM
[32] = biological target: Phosphatidylinositol 4-phosphate 5-kinase type-1 gamma (Homo sapiens) (UniProt O60331); settings: Compound concentration 1000.0 nM
[33] = test system: Epidermal growth factor receptor (Homo sapiens), P00533 [UNDEFINED MUTATION]; settings: Compound concentration 1000.0 nM
[34] = biological target: Ribosomal protein S6 kinase alpha-2 (Homo sapiens) (UniProt Q15349); settings: Compound concentration 1000.0 nM
[35] = test system: Mast/stem cell growth factor receptor Kit (Homo sapiens), P10721 [D816H]; settings: Compound concentration 1000.0 nM
[36] = biological target: Phosphatidylinositol 3-kinase C2 domain-containing subunit gamma (Homo sapiens) (UniProt O75747); settings: Compound concentration 1000.0 nM
[37] = biological target: Tyrosine-protein kinase Fyn (Homo sapiens) (UniProt P06241); settings: Compound concentration 1000.0 nM
[38] = biological target: Tyrosine-protein kinase JAK2 (Homo sapiens) (UniProt O60674); settings: Compound concentration 1000.0 nM
[39] = biological target: 5-hydroxytryptamine receptor 7 (Homo sapiens) (UniProt P34969); settings: Compound concentration 10.0 uM
[40] = biological target: LIM domain kinase 2 (Homo sapiens) (UniProt P53671); settings: Compound concentration 1000.0 nM
[41] = biological target: Homeodomain-interacting protein kinase 1 (Homo sapiens) (UniProt Q86Z02); settings: Compound concentration 1000.0 nM
[42] = biological target: Phosphatidylinositol 5-phosphate 4-kinase type-2 beta (Homo sapiens) (UniProt P78356); settings: Compound concentration 1000.0 nM
[43] = biological target: Ribosomal protein S6 kinase alpha-6 (Homo sapiens) (UniProt Q9UK32); settings: Compound concentration 1000.0 nM
[44] = biological target: Mitogen-activated protein kinase kinase kinase 14 (Homo sapiens) (UniProt Q99558); settings: Compound concentration 1000.0 nM
[45] = biological target: Testis-specific serine/threonine-protein kinase 1 (Homo sapiens) (UniProt Q9BXA7); settings: Compound concentration 1000.0 nM
Testis-specific serine/threonine-protein kinase 1 (Homo sapiens), sequence (Q9BXA7 whole entry): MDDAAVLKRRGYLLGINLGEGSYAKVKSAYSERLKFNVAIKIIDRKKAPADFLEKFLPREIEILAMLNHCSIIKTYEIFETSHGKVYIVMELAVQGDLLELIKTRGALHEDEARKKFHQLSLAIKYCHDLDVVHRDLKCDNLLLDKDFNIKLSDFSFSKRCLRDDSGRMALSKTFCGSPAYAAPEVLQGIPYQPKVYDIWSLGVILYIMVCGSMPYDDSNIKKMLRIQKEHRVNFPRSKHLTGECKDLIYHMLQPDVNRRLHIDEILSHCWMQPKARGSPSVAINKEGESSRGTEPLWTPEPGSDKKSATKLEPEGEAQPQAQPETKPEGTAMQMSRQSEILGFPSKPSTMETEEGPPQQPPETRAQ

Cyclin-dependent kinase 4 (Homo sapiens), sequence (P11802 whole entry): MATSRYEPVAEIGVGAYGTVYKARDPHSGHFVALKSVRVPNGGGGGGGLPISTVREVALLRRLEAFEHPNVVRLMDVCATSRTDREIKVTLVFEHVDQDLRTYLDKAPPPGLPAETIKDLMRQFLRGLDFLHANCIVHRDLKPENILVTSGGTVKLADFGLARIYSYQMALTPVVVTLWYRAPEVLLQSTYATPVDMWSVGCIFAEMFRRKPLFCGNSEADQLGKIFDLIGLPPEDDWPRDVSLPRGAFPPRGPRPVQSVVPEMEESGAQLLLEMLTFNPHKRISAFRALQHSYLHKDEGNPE
Serine/threonine-protein kinase OSR1 (Homo sapiens), sequence (O95747 2-527 limits assumed): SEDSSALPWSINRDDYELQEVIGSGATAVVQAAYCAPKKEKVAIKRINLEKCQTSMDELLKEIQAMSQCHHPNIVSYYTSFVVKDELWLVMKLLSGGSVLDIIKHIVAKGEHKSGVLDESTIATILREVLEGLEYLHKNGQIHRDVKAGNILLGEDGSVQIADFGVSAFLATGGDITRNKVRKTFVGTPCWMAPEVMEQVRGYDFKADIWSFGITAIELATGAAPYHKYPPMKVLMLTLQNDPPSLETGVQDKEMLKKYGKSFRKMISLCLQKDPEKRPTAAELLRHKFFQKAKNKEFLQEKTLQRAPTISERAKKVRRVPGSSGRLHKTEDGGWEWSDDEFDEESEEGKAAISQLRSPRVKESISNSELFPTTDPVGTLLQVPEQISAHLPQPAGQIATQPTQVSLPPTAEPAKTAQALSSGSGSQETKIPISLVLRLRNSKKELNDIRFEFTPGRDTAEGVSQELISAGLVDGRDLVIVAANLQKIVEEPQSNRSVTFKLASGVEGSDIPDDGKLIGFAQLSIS
Mitogen-activated protein kinase 15 (Homo sapiens), sequence (Q8TD08 whole entry): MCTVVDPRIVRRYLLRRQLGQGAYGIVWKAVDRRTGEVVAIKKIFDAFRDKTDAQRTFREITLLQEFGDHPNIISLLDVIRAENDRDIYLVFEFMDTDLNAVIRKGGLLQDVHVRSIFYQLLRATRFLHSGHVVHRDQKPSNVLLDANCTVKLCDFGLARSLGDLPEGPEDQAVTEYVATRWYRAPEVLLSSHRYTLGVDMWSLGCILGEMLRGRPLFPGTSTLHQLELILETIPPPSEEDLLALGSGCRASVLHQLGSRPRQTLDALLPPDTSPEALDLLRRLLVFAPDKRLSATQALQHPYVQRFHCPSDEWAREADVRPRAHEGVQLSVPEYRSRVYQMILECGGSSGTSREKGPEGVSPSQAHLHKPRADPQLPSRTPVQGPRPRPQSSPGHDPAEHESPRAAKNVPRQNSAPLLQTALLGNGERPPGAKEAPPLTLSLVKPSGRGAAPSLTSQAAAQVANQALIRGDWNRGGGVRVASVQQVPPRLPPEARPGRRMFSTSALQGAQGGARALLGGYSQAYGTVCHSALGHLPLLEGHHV
Receptor-type tyrosine-protein kinase FLT3 (Homo sapiens), P36888 [UNDEFINED MUTATION], sequence (P36888 whole entry, looked up, change not shown): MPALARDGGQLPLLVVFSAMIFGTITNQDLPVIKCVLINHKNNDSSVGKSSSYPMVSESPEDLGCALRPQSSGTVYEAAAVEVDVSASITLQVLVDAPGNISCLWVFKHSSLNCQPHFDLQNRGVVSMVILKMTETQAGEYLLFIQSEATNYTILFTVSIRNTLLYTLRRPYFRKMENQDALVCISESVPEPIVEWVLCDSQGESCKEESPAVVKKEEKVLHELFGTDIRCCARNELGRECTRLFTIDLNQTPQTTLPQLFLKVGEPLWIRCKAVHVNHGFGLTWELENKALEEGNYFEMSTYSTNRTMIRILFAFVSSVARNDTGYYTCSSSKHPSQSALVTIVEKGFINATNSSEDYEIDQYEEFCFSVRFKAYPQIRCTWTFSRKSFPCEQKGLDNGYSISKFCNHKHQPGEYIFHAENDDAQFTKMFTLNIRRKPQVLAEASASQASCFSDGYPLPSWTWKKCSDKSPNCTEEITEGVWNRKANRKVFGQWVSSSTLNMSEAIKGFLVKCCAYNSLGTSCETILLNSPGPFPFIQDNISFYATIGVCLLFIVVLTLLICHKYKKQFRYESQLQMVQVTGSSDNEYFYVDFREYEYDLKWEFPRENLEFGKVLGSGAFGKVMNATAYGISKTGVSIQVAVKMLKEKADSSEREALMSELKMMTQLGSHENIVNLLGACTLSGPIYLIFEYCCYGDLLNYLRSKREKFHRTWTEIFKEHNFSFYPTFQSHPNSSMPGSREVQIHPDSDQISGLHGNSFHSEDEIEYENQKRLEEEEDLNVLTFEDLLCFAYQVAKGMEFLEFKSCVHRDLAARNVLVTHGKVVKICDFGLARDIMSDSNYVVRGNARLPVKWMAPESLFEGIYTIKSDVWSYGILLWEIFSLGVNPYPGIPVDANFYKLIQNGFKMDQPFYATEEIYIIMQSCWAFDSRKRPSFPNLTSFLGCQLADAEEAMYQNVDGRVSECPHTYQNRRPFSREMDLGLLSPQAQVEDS
Phosphatidylinositol 4-phosphate 5-kinase type-1 gamma (Homo sapiens), sequence (O60331 whole entry): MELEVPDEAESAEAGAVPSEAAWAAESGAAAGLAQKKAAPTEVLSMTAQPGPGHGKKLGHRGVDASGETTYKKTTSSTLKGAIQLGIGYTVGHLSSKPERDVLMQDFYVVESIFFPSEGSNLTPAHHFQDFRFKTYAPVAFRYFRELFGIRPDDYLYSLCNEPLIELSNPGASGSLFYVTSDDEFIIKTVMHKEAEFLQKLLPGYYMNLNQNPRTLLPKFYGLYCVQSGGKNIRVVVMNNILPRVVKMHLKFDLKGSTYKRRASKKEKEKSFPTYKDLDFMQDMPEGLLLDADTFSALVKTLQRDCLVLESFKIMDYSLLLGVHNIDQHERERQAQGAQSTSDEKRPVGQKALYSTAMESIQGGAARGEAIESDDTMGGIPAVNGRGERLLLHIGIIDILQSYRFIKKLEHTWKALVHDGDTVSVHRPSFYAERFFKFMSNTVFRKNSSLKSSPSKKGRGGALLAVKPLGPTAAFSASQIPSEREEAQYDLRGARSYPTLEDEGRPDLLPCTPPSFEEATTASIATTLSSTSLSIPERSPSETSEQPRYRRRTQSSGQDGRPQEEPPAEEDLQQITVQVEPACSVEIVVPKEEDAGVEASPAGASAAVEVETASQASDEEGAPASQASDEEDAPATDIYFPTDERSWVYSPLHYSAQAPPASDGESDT
Ribosomal protein S6 kinase alpha-3 (Homo sapiens), sequence (P51812 whole entry): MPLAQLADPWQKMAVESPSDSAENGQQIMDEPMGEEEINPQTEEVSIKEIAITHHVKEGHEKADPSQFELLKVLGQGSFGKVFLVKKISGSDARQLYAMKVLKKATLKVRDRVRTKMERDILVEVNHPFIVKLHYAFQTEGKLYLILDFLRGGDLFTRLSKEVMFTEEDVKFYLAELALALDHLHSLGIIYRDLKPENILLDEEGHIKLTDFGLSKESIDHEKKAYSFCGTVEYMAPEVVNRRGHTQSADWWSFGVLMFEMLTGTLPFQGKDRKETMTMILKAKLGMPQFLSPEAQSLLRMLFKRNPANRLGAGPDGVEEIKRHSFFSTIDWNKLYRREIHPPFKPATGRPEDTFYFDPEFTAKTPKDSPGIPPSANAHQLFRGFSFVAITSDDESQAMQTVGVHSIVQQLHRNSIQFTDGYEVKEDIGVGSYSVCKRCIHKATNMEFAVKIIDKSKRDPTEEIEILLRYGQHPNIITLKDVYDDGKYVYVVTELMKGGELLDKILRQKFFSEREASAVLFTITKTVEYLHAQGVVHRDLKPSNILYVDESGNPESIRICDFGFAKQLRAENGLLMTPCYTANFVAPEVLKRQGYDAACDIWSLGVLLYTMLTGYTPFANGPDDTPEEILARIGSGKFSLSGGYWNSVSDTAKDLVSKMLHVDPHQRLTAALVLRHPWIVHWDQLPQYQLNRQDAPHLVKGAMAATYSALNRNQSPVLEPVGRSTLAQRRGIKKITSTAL
Mitogen-activated protein kinase kinase kinase kinase 3 (Homo sapiens), sequence (Q8IVH8 whole entry): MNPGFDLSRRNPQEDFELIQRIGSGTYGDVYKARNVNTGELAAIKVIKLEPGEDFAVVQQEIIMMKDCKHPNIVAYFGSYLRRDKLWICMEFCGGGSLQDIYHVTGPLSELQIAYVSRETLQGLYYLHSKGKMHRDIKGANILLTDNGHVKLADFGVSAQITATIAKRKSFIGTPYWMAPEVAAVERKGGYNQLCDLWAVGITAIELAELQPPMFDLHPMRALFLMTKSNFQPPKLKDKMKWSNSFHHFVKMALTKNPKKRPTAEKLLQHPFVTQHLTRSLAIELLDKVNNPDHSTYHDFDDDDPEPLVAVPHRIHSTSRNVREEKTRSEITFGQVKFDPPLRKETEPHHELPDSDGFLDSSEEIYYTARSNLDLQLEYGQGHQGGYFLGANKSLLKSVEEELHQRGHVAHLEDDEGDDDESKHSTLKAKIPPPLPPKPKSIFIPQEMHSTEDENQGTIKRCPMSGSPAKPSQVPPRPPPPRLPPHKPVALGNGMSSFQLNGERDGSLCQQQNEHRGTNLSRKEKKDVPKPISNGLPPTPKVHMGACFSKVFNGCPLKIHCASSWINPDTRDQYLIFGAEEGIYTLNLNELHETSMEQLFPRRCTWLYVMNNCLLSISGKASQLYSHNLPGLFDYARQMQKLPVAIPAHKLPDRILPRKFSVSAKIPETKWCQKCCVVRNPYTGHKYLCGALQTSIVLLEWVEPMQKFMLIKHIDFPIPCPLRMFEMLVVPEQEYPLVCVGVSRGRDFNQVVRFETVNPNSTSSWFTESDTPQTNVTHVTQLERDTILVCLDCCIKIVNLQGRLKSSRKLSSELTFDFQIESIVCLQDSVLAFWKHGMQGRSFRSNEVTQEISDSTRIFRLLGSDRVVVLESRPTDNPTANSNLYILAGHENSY

FC(F)(F)c1ccc2c(c1)nc(-c1cccnc1)n2C1CC1 [MSD-CYP11B2-Negative-control]
inactive: residual activity [1] 99% | residual activity [2] 100% | residual activity [3] 100% | residual activity [4] 100% | residual activity [5] 100% | residual activity [6] 100% | residual activity [7] 100% | inhibition [8] 17.2% | residual activity [9] 97% | residual activity [10] 100% | residual activity [11] 83% | residual activity [12] 100% | residual activity [13] 100% | residual activity [14] 100% | residual activity [15] 100% | residual activity [16] 100% | residual activity [17] 100% | residual activity [18] 100% | residual activity [19] 100% | residual activity [20] 71% | residual activity [21] 100% | residual activity [22] 100% | residual activity [23] 100% | residual activity [24] 100% | residual activity [25] 92% | residual activity [26] 100% | residual activity [27] 100% | residual activity [28] 100% | residual activity [29] 100% | residual activity [30] 100% | residual activity [31] 100% | residual activity [32] 85% | residual activity [33] 100% | residual activity [34] 100% | residual activity [35] 100% | residual activity [36] 100% | residual activity [37] 100% | residual activity [38] 100% | inhibition [39] 0.88% | residual activity [40] 100% | residual activity [41] 100% | residual activity [42] 82% | residual activity [43] 100% | residual activity [44] 100% | residual activity [45] 100%

CC(C)(O)c1cncc(-c2nc3ccc(F)cc3n2C2CC2)c1 [MSD-CYP11B2]
inactive: residual activity [1] 100% | residual activity [2] 100% | residual activity [3] 100% | residual activity [4] 100% | residual activity [5] 88% | residual activity [6] 100% | residual activity [7] 90% | inhibition [8] 2.3% | residual activity [9] 98% | residual activity [10] 100% | residual activity [11] 89% | residual activity [12] 100% | residual activity [13] 100% | residual activity [14] 100% | residual activity [15] 100% | residual activity [16] 100% | residual activity [17] 100% | residual activity [18] 100% | residual activity [19] 100% | residual activity [20] 69% | residual activity [21] 100% | residual activity [22] 92% | residual activity [23] 100% | residual activity [24] 95% | residual activity [25] 83% | residual activity [26] 100% | residual activity [27] 100% | residual activity [28] 100% | residual activity [29] 100% | residual activity [30] 100% | residual activity [31] 100% | residual activity [32] 100% | residual activity [33] 100% | residual activity [34] 100% | residual activity [35] 100% | residual activity [36] 100% | residual activity [37] 100% | residual activity [38] 100% | inhibition [39] -2.18% | residual activity [40] 100% | residual activity [41] 97% | residual activity [42] 99% | residual activity [43] 100% | residual activity [44] 100% | residual activity [45] 97%

— ChEMBL document CHEMBL4507294, “Data for DCP probe MSD-CYP11B2” (2021)
